Patent publication US20240148664A1, “LIPID AND COMPOSITION” (SOGO PHARMACEUTICAL CO., LTD., priority 2021, published 2024)
Entries after “also recorded” stand apart in the source; their conditions may differ.

Legend:
[1] = tested on: HEK293T cells and NIH3T3 cells; experiment: Evaluation of toxicity (CellTiter-Fluor Cell Viability Assay, CTF); type: cell-based; conditions: lipid nanoparticle containing mRNA; number of surviving cells relative to cells without lipid nanoparticle set at 1; one rating per lipid, printed on the HEK293T line
Description: For lipids (Ia), (Ib), and (Ie) of Examples 1, 2, and 5, a cell experiment was carried out by using HEK293T cells and NIH3T3 cells in order to evaluate lipid nanoparticles encapsulating an mRNA. By transfecting the cells with lipid nanoparticles and measuring the amount of a predetermined protein produced, the performance of the lipid nanoparticles used can be evaluated. Hereinafter, the procedure of the cell experiment will be shown.
A. Seeding of Cells • (i) A liquid medium (DMEM High glucose, FBS+, P/S+) was temperature-controlled in an incubator set at 37° C. • (ii) A cryotube containing cells was taken out from a −80° C. freezer and thawed at once in the incubator set at 37° C. • (iii) A test tube was subjected to a centrifuge to precipitate the cells. • (iv) The supernatant was aspirated, and the liquid medium was added and gently tapped to disperse the cells. • (v) A small amount of the cells-dispersed liquid medium was collected, and the number of cells was observed and counted under a microscope. • (vi) The cells were seeded in three 24-well black plates such that the number of cells was 1×10^4 cells per well. The 24-well black plates were placed in an incubator, and the cells were cultured for 24 hours under conditions of 37° C. and 5% CO2. […]
D. Evaluation of Toxicity (CellTiter-Fluor (Registered Trademark) Cell Viability Assay) • (i) The CellTiter-Fluor (registered trademark) Cell Viability (CTF) Assay Reagent was completely thawed in a 37° C. water bath. • (ii) GF-AFC Substrate was uniformly mixed by using a vortex mixer. • (iii) The required amounts of Buffer and GF-AFC Substrate attached to the CTF Assay Reagent (Kit) were mixed at a mixing ratio of 10 mL:10 μL. • (iv) 100 μL per well of the mixed CTF Reagent mixture was added to a 24-well black plate containing the cells cultured in B. (v) above, and the plate was quickly shielded from light with aluminum foil, and then shaken on a plate shaker for 30 seconds. • (v) The plate was placed in an incubator, […], and the cells were cultured for 30 minutes under conditions of 37° C. and 5% CO2. • (vi) The fluorescence intensity was measured with a plate reader (excitation wavelength of 380 nm, fluorescence wavelength of 505 nm). Based on the obtained measurement results, the number of surviving cells was calculated with the fluorescence intensity of cells to which no lipid nanoparticle was added set at 1. […]

mice = experiment: In vivo animal experiment: protein expression level after intramuscular administration of mRNA lipid nanoparticles (IVIS luminescence); conditions: intramuscular left hind leg, 1.25 μg mRNA/mouse, time point of the value not stated
Description: An experiment was carried out in mice in order to evaluate lipid nanoparticles encapsulating an mRNA. By injecting mice with a solution including lipid nanoparticles to transfect the mice and measuring the amount of a predetermined protein produced, the performance of the lipid nanoparticles used can be evaluated. Hereinafter, the procedure of the experiment will be shown.
By using lipids (Ib), (Ik), and (II) of Examples 2, 11, and 12, lipid nanoparticle-containing solutions for the in vivo animal experiment were prepared. […]
50 μL (1.25 μg/mouse, in terms of amount of mRNA) of the solution for administration was intramuscularly administered to the left hind leg of mice. […] 10 Minutes after administration of the luciferin solution, the amount of luminescence at a predetermined time after administration was measured under isoflurane anesthesia with an in vivo imaging system (manufactured by Xenogen, IVIS) to calculate the protein expression level.

| SMILES | CTF Assay [1] | Protein expression level (mice; PEG-modified lipid (PEG2000-DMG 1.5 mol %) present) | Protein expression level (mice; PEG-modified lipid absent) |
| --- | --- | --- | --- |
| CCCCCCCC/C=C\CCCCCCCCC(CCCCCCC/C=C\CCCCCCCC)OC(=O)C(CC(=O)O)NC(=O)C(N)CCCNC(=N)N (centres unmarked) [Example 1, 3-(2-amino-5-guanidinopentanamido)-4-(((9Z,27Z)-hexatriaconta-9,27-dien-18-yl)oxy)-4-oxobutanoic acid] | low cytotoxicity; also recorded: ⊚ (When the number of surviving cells was more than 0.80 and 1.00 or less, a rating of double-circle (excellent) was given) |  |  |
| CCCCCCCC/C=C\CCCCCCCCC(CCCCCCC/C=C\CCCCCCCC)OC(=O)C(CCC(=O)O)NC(=O)C(N)CCCNC(=N)N (centres unmarked) [Example 2, 4-(2-amino-5-guanidinopentanamido)-5-(((9Z,27Z)-hexatriaconta-9,27-dien-18-yl)oxy)-5-oxopentanoic acid] | low cytotoxicity; also recorded: ⊚ (When the number of surviving cells was more than 0.80 and 1.00 or less, a rating of double-circle (excellent) was given) | 130,000 | 13,000 |
| CCCCCCCC/C=C\CCCCCCCCC(CCCCCCC/C=C\CCCCCCCC)OC(=O)C(NC(=O)C(N)CCCNC(=N)N)C(C)O [Example 5, (9Z,27Z)-hexatriaconta-9,27-dien-18-yl (2S)-2-((S)-2-amino-5-guanidinopentanamido)-3-hydroxybutanoate] | low cytotoxicity; also recorded: ⊚ (When the number of surviving cells was more than 0.80 and 1.00 or less, a rating of double-circle (excellent) was given) |  |  |
